# In patent US8557532B2, “Diagnosis and treatment of drug-resistant Ewing'S sarcoma” (The University of Utah Research Foundation, priority 2010, dated 2013):
# Experiments:
# [1] = test system: A673 cells; assay: MTT cell proliferation assay in A673 Ewing's sarcoma cells; format: cell-based; conditions: Homo sapiens, 72 h, 3 days, read-out: IC50, inhibition of A673 cell proliferation
# Protocol: The A673 cells were seeded at a density of 2×10^4 cells/well in 24-well plate on day 0.
# [2] = test system: Ewing's sarcoma cells with decreased levels of GSTM4; assay: MTT survival assay, wild-type (luc-RNAi) versus reduced GSTM4 (GSTM4-4-RNAi) Ewing's sarcoma cells; format: cell-based, human
# Protocol: Chemotherapeutic sensitivity assays. The sensitivity of Ewing's sarcoma cells to chemotherapeutic agents was determined via the following experimental procedures. The indicated Ewing's sarcoma cells were seeded at a density of 2×10^4 cells/well in 24-well plates on day-0. On day 1, cells were incubated with varying concentrations of the indicated drug or drugs for 3 days. Subsequently, MTT cell proliferation assays were performed according to the manufacturer's instructions (Cayman Chemical Company, Ann Arbor, Mich.).
# To test whether GSTM4 contributed to the chemotherapeutic resistance profile of Ewing's sarcoma, wild-type (luc-RNAi) and reduced GSTM4 (GSTM4-4-RNAi) cells were treated with increasing dosages of chemotherapeutic drugs and tested using MTT survival assays. The chemotherapeutic agents that were tested included etoposide, doxorubicin, and melphalan.
# It was further determined that GSTM4 can alter the sensitivity of Ewing's sarcoma cells for fenretinide. […] It was further determined that decreased GSTM4 levels can change intracellular redox potential.
# JS-K (provided by Dr. Paul Shami at the University of Utah) is a GST-activated prodrug with potent anti-neoplastic activity. A673, Ewing's sarcoma, cells with wild type (Luc-RNAi) or decreased GSTM4 levels (GSTM4-RNAi infected cells) were seeded in 24-well plates at a density of 2×10^4 cells/well. GSTM4 decreased cells or negative controls were treated with increasing concentrations of JS-K (0, 0.3125, 0.625, 1.25, 2.5, 5, or 10 μM) for 72 hours, followed by an MTT cell viability analysis.
IC50 [1] [nM],Structure (SMILES),Sensitivity of cells with decreased GSTM4 levels to the drug compared to control cells [2]
500,"O=[N+]([O-])c1ccc(SCCCCCCO)c2nonc12 [NBDHEX, 6-(7-nitro-2,1,3-benzoxadiazol-4-ylthio) hexanol]",–
–,CC1=C(/C=C/C(C)=C/C=C/C(C)=C/C(=O)Nc2ccc(O)cc2)C(C)(C)CCC1 [fenretinide],more sensitive
–,COc1cccc2c1C(=O)c1c(O)c3c(c(O)c1C2=O)C[C@@](O)(C(=O)CO)C[C@@H]3O[C@H]1C[C@H](N)[C@H](O)[C@H](C)O1 [doxorubicin],not sensitive
–,COc1cc([C@@H]2c3cc4c(cc3[C@@H](O[C@@H]3O[C@@H]5CO[C@@H](C)O[C@H]5[C@H](O)[C@H]3O)[C@H]3COC(=O)[C@H]23)OCO4)cc(OC)c1O [etoposide],increase in sensitivity
–,"CCOC(=O)N1CCN(/[N+]([O-])=N/Oc2ccc([N+](=O)[O-])cc2[N+](=O)[O-])CC1 [JS-K, O^2-(2,4-Dinitrophenyl)1-[(4-Ethoxycarbonyl)piperazin-1-yl]diazen-1-ium-1,2-diolate]",less sensitive
